# Measurements: patent publication US9949946B2, “Inclusion complexes of pinocembrin with cyclodextrin or its derivatives” (CSPC ZHONGQI PHARMACEUTICAL TECHNOLOGY (SHIJIAZHUANG) CO., …, priority 2008, dated 2018)
# Key:
# [1] = tested on: MCAO operation-injured rats; assay: MCAO model, rCBF of the rat acute cerebral ischemia tissue; format: in vivo; details: 30 minutes after the cerebral ischemia, 3 mg/kg
# Protocol: Assay Method: The assay was conducted according to the MCAO model method as reported in the literature (Zhang Juntian, Modern Experimental Methods in Pharmacology, October 1998, the First Edition, the United Press of Beijing Medical University and Peking Union Medical College).
# The rCBF (regional cerebral blood flow) value in the cortex medium-sized arterial blood-supplying area reduced rapidly to 20˜30% of the pre-operation basal level because of the MCAO operation. 24 hours after ischemia (pre-decapitation), the collateral circulation compensation established and the rCBF value increased a little compared with the value during the operation, but still below 50% of the basal level.
# 30 minutes after the cerebral ischemia, the rCBF value of the vehicle group was 31.09±5.35% of the basal value, and the rCBF values of the administration groups, i.e., the inclusion complex DL0108 group (1 mg/kg, 3 mg/kg, 10 mg/kg) and the nimodipine group, were 40.76±6.58%, 50.09±7.09%, 53.28±8.03%, 55.58±6.09% of the basal value respectively. […] The DL0108 (3, 10 mg/kg) group and the nimodipine (3 mg/kg) group had significant differences from the vehicle group (P<0.05).
# [2] = Determination of the solubility of pinocembrin; format: physicochemical; details: water
# Protocol: Through using cyclodextrin or its derivative to include pinocembrin and make pinocembrin molecules entrap in the tubular structure of cyclodextrin or its derivative, and therefore obtain the inclusion complex of pinocembrin with cyclodextrin or its derivative, the water-solubility of pinocembrin is enhanced greatly. […] The specific results are shown in Example 10.
# In order to screen solubilizer, cosolvent and non-aqueous solvent useful for injection, a series of experiments were conducted with their general dosages respectively to determine the solubilization effect of pinocembrin.
# The solubilities in Table 1 are the solubilities of pinocembrin.
solubility [2] [µg/mL],Structure (SMILES),rCBF value [1]
–,COCCOC(=O)C1=C(C)NC(C)=C(C(=O)OC(C)C)C1c1cccc([N+](=O)[O-])c1 (centres unmarked) [nimodipine],55.58±6.09 % of the basal value
< 200,"O=C1CC(c2ccccc2)Oc2cc(O)cc(O)c21 (centres unmarked) [pinocembrin, 2,3-Dihydro-5,7-dihydroxy-2-phenyl-4H-1-benzopyran-4-one]",–
